The values that follow come from paper PMC5489766 (Journal of Ginseng Research, 2016).

The target of data set [1] is T1, HSA (Homo sapiens, UniProt P02768). Kind of data set: Fluorescence quenching of HSA by G-Rh2. In kind it is binding. Conditions: for KSV: HSA 1 μM, pH 7.4; for Kd: K (binding constant).
Data set [2] has as its system PARP cleavage in HepG2 cells. Description: Immunoblotting of PARP cleavage. Conditions: HepG2, 7.5 μg/mL, BSA or bovine serum, 4 h. In kind it is cell-based. A general note: In western blotting, separated proteins are transferred to a membrane and probed.
Another data set has as its system HepG2 cells. Description: MTT assay, cytotoxic activity with or without serum albumin. In kind it is cell-based. Conditions: HepG2, 7.5 μg/mL, 48 h. On the technique in general: Tetrazolium dyes change colour on reduction, which living cells bring about.
Data set [3] addresses T2, BSA (Bos taurus, UniProt P02769). Kind of data set: Fluorescence quenching of BSA by G-Rh2. In kind it is binding, bovine. Conditions: for KSV: BSA 1 μM, pH 7.4; for Kd: K (binding constant).
The conditions of data set [4]: general statement; cited from earlier work.
In data set [5] the target is T2, BSA. Description: UV-Vis absorption spectra of BSA with G-Rh2. The data set is classed as binding, bovine. Conditions: BSA 25 μM, G-Rh2 50 μM, 298K, pH7.4.
Data set [6] concerns the target T1, HSA. Kind of data set: UV-Vis absorption spectra of HSA with G-Rh2. Conditions: HSA 25 μM, G-Rh2 50 μM, 298K, pH7.4. In kind it is binding.

T2 sequence (P02769 25-607): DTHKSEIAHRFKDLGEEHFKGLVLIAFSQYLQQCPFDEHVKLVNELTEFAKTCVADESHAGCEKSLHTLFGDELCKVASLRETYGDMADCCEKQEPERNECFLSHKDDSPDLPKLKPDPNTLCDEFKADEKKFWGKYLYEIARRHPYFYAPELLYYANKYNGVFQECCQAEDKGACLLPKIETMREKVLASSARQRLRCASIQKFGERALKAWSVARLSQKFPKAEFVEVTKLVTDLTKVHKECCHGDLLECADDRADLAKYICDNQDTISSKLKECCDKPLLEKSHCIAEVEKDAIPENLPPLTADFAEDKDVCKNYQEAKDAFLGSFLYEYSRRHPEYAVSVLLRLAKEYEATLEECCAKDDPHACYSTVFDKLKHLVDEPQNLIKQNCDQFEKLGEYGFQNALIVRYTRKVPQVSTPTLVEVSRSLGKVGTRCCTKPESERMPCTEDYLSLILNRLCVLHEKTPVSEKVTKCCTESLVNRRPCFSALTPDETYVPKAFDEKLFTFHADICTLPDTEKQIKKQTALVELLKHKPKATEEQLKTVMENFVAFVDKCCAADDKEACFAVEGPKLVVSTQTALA
T1 sequence (P02768 25-609): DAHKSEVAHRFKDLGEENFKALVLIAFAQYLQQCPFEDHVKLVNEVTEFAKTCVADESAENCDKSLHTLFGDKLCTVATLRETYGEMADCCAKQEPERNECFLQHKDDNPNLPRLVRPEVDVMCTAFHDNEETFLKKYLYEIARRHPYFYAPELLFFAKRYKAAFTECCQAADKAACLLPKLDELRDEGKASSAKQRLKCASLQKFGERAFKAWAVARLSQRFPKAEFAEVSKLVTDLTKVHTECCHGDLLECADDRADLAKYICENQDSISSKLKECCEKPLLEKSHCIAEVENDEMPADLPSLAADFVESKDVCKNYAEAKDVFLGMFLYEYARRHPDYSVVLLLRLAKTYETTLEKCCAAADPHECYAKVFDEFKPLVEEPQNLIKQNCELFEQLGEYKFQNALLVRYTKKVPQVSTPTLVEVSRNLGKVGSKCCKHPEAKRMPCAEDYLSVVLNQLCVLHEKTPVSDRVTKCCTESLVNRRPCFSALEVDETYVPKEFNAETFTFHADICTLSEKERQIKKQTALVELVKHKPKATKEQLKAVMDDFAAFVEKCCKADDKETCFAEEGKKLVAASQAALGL

A word on the Kd: it is the concentration at which binding is half-saturated. For `CC(C)=CCC[C@](C)(O)[C@H]1CC[C@]2(C)[C@@H]1[C@H](O)C[C@@H]1[C@@]3(C)CC[C@H](O[C@@H]4O[C@H](CO)[C@@H](O)[C@H](O)[C@H]4O)C(C)(C)[C@@H]3CC[C@]12C` [(20R) G-Rh2, Ginsenoside Rh2], the KSV at HSA [1] (298 K) was 4.5120 10^4 M^−1; at HSA [1] (303 K), 6.9016 10^4 M^−1; on HSA [1] (308 K), 7.2751 10^4 M^−1. Besides, the kq at HSA [1] (HSA, 298 K) is 4.5120 10^12 M^−1 s^−1; on HSA [1] (HSA, 303 K) it was 6.9016 10^12 M^−1 s^−1; on HSA [1] (HSA, 308 K), 7.2751 10^12 M^−1 s^−1. Besides, the “n (number of binding sites)” value on HSA [1] (HSA, 298 K) amounted to 1.131; on HSA [1] (HSA, 303 K), 1.0626; on HSA [1] (HSA, 308 K), 1.0284. In addition, the dissociation constant (Kd) at HSA [1] (HSA, 298 K) was 4.85 µM; on HSA [1] (HSA, 303 K) it was 6.89 µM; at HSA [1] (HSA, 308 K), 11.5 µM.

`CC(C)=CCC[C@](C)(O)[C@H]1CC[C@]2(C)[C@@H]1[C@H](O)C[C@@H]1[C@@]3(C)CC[C@H](O[C@@H]4O[C@H](CO)[C@@H](O)[C@H](O)[C@H]4O)C(C)(C)[C@@H]3CC[C@]12C` [(20S) G-Rh2, Ginsenoside Rh2]: the PARP cleavage result in data set [2] (with 1.68mg/mL albumin by adding HSA) is “totally inhibited PARP cleavage”; in data set [2] (without HSA) it was “caused the cleavage of poly-adenosine diphosphate-ribose polymerase (PARP)”. For the same molecule, the Cell viability result was “significantly increased in an albumin-dose-dependent manner” in the data set on HepG2 cells (increased concentration of albumin by adding HSA, BSA or bovine serum) and “killed almost all cells” with HepG2 cells (without SA). For the same molecule, the KSV at HSA [1] (298 K) is given as 4.9578 10^4 M^−1; at HSA [1] (303 K), 6.5117 10^4 M^−1; on HSA [1] (308 K), 7.2510 10^4 M^−1; at BSA [3] (298 K), 7.3470 10^4 M^−1; at BSA [3] (303 K), 11.6703 10^4 M^−1; at BSA [3] (308 K), 9.2848 10^4 M^−1. Also, the kq on HSA [1] (HSA, 298 K) is given as 4.9578 10^12 M^−1 s^−1; at HSA [1] (HSA, 303 K), 6.5117 10^12 M^−1 s^−1; on HSA [1] (HSA, 308 K), 7.2510 10^12 M^−1 s^−1; on BSA [3] (BSA, 298 K), 7.3470 10^12 M^−1 s^−1; on BSA [3] (BSA, 303 K), 11.6703 10^12 M^−1 s^−1; on BSA [3] (BSA, 308 K), 9.2848 10^12 M^−1 s^−1. Also, the “n (number of binding sites)” value at HSA [1] (HSA, 298 K) was found to be 1.2027; on HSA [1] (HSA, 303 K) it was 1.1449; on HSA [1] (HSA, 308 K), 1.0786; on BSA [3] (BSA, 298 K) it was 1.1329; at BSA [3] (BSA, 303 K), 1.0192; at BSA [3] (BSA, 308 K), 0.9702. In addition, the “number of binding site” value on HSA [1] (HSA, temperature not stated, listed as (20S)-Rh2) was found to be 1; at BSA [3] (BSA, temperature not stated (abstract)) it was 1. Moreover, the equilibrium dissociation constant (Kd) at HSA [1] (HSA, 298 K) is 1.83 µM; on HSA [1] (HSA, 303 K) it was 2.86 µM; at HSA [1] (HSA, 308 K), 5.39 µM; on BSA [3] (BSA, 298 K), 2.77 µM; at BSA [3] (BSA, 303 K), 7.01 µM; at BSA [3] (BSA, 308 K), 15.5 µM. Further, the water solubility result in data set [4] is reported as “very low”.

Regarding `CC(C)=CCC[C@](C)(O)[C@H]1CC[C@]2(C)[C@@H]1[C@H](O)C[C@@H]1[C@@]3(C)CC[C@H](O[C@@H]4O[C@H](CO)[C@@H](O)[C@H](O)[C@H]4O)C(C)(C)[C@@H]3CC[C@]12C` [G-Rh2, Ginsenoside Rh2], the “UV-Vis absorption of protein on adding G-Rh2” value on BSA [5] and at HSA [6] was “significantly increased with a slight blue shift of the maximum absorption wavelength” throughout.
